Reference: patent US20100129856A1, “Methods and Devices for Cell Signaling Under Pulse Stimulation” (priority 2008, published 2010)
No end group written: not given here.

What was measured:
[1] = test system: quiescent A431 cells; experiment: Microfluidics-RWG biosensor DMR assay under pulse or sustained stimulation; format: cell-based, human; conditions: FIG. 8; for DMR signal under pulse stimulation compared with sustained epinephrine response: 2 min pulse, 2 nM epinephrine, 100 nM salbutamol, flow 1 microliter/min
Description: (§1) Cells were typically grown using ˜1 to 2×10^4 cells per well at passage 3 to 15 suspended in 50 μl of the corresponding culture medium in the biosensor microplate, and were cultured at 37° C. under air/5% CO2 for ˜1 day. Except for A431 which was subject to ˜20 hr starvation through continuously culture in the serum-free DMEM, the A459 cells were directly assayed without starvation. The confluency for all cells at the time of assays was ˜95% to 100%. For cell culture in the microfluidics-biosensor chamber systems, ˜4×10^4 cells suspended in 10 μl the medium containing 10% FBS were injected into the chamber, and were cultured at 37° C. under air/5% CO2 until ˜95% confluency was reached (˜1 day). To prevent drying during the culture, the biosensor device was maintained within a petri dish with a cover, and extra cell medium within the dish.
(§2) Label-free biosensor cell assays: Corning RWG (resonant waveguide grating) imaging system was used for label-free biosensor cell assays. The imaging system, based on swept wavelength interrogation, is capable of high resolution imaging, with a spatial resolution of 6 micron in the direction perpendicular to the propagation path of the coupled light, a resolution of about 150 or about 6 microns in the direction parallel to the propagation path of the coupled light. The cellular responses across the whole sensor were recorded in real time at each pixel (6 microns×6 microns). The cellular responses at defined locations or areas of the biosensor surface were averaged to generate responses of a population of cells within the detection area(s).
The A431 cells reached high confluency before assays, and were subject to starvation for overnight with serum free medium. For A549 cells, cells were grown to high confluency and used for assays without starvation. Before assays, the cell medium was replaced with 1× Hanks' balanced salt solution (HBSS) having 20 mM Hepes buffer, and incubated within the imaging system for about 1 hour. […] The cellular responses throughout the assays were recorded using the high resolution imaging system. […]

[2] = molecular target: T1, β2-adrenergic receptor (β2AR) (Homo sapiens, UniProt P07550); experiment: Buffer swapping RWG biosensor DMR assay (microplate) for long-acting agonism; format: cell-based
T1 construct: 2 nM epinephrine-induced DMR signal of quiescent A431 cells; host or cells: A431 (human epidermoid carcinoma), serum-starved (quiescent)
T1 sequence (P07550 whole entry): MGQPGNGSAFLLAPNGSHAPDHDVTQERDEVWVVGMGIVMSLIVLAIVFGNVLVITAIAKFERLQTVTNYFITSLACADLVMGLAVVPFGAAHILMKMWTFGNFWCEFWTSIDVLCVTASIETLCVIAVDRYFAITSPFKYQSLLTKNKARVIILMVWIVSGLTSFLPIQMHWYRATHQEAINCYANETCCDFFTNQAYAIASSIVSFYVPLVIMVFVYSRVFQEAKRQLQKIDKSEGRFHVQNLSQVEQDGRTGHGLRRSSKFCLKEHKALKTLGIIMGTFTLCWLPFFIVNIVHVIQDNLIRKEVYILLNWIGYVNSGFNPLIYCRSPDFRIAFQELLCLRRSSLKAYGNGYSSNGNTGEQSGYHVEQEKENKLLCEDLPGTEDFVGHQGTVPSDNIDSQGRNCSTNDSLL
Description: Cells were typically grown using ˜1 to 2×10^4 cells per well at passage 3 to 15 suspended in 50 μl of the corresponding culture medium in the biosensor microplate, and were cultured at 37° C. under air/5% CO2 for ˜1 day. […] The confluency for all cells at the time of assays was ˜95% to 100%.

[3] = molecular target: T2, PAR1 receptor (Homo sapiens, UniProt P25116); experiment: Microfluidics-RWG biosensor DMR assay of A549 cells with PAR1 agonists; format: cell-based; conditions: for EC100: DMR; for Reversibility of the triggered cellular response: agonist removed after 30 min; for Response of pre-treated cells to second stimulation with 10 unit/ml thrombin: first exposure 30 min (SFLLR-amide 10 μM or thrombin 5 unit/ml), HBSS ~2 hours, then thrombin, FIG. 10; for P-DMR signal maximal amplitude (shift in resonant wavelength): thrombin 5 unit/ml, SFLLR-amide 10 μM, constant flow 1 microliter per min, FIG. 9
T2 construct: triggered an almost indistinguishable DMR signal in A549 cells; host or cells: A549 (human lung carcinoma), not starved
T2 sequence (P25116 22-425): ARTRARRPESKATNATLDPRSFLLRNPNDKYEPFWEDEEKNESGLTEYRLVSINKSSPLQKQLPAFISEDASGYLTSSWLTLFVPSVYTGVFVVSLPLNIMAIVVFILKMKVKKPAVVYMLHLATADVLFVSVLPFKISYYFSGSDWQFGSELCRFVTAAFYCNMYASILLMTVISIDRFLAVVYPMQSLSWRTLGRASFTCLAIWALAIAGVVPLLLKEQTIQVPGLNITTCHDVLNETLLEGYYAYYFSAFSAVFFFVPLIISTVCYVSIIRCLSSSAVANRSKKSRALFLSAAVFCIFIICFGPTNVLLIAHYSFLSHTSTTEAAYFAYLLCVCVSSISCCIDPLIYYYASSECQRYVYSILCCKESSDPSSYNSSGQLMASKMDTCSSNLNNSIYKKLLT
Description: as §1, §2
The A431 cells reached high confluency before assays, and were subject to starvation for overnight with serum free medium. For A549 cells, cells were grown to high confluency and used for assays without starvation. Before assays, the cell medium was replaced with 1× Hanks' balanced salt solution (HBSS) having 20 mM Hepes buffer, and incubated within the imaging system for about 1 hour. The chamber was filled with 6.6 micro-liters buffered solution. The HBSS buffer solution was initially introduced into the chamber from the inlet and flowed through the biosensor with a low flow rate (typically 1 μl/min or 1 microliter/min) using a controlled pump until a steady baseline was reached. Then, a first solution, typically a solution containing a receptor agonist or a compound dissolved in the HBSS buffer, was introduced by switching the valve, and flowed through the biosensor for a period of time (e.g., 1 min, or 5 min, or 30 min). Subsequently, the HBSS buffer solution was reintroduced and flowed through the biosensor to replace the first solution. After certain time period, a second solution, typically a solution containing a receptor agonist or a compound, either different or the same as the first solution, was introduced and flowed through the biosensor continuously to trigger a cellular response. The flow rate was typically relatively low (˜0.5 μ/min to 5 μl/min), such that no mechanical sensitive cellular responses were triggered, and the cellular responses observed were largely due to the chemical(s) in the solution. Different combinations of these steps can be applied, depending on the purpose of the assays. The cellular responses throughout the assays were recorded using the high resolution imaging system. Depending on the biosensor insert used, the biosensor has a dimension of 3 mm×3 mm or 2 mm×2 mm. The chamber dimension is a length of about 9 mm from the inlet to the outlet, a width of 5 mm, and a height of 100 microns from the sensor surface to the bottom surface of the chamber. The total volume of solution required to fill the chamber is about 6 micro-liters.
For biosensor cellular assays, a baseline was established first. All studies were carried out at controlled temperature (22° C.) and with three replicates for each measurement, unless specifically mentioned. […]

[4] = quiescent A431 cells, pulse about 60 sec, 100 nM norepinephrine, 100 nM salbutamol, 100 nM salmeterol, FIG. 7b

Compound	DMR signal under pulse stimulation compared with sustained epinephrine response [1]	Effect of pulse pre-treatment on the 2 nM epinephrine-induced DMR signal [2, 4]	EC100 ([3]; A549 cells)	Reversibility of the triggered cellular response ([3]; A549 cells)	Response of pre-treated cells to second stimulation with 10 unit/ml thrombin ([3]; A549 cells)	P-DMR signal maximal amplitude (shift in resonant wavelength) ([3]; A549 cells) [picometers]	also measured
CC(C)(C)NCC(O)c1ccc(O)c(CO)c1 (stereo not shown) [salbutamol]	much smaller response						
NC[C@H](O)c1ccc(O)c(O)c1 [norepinephrine]		little impact					
CNC[C@H](O)c1ccc(O)c(O)c1 [epinephrine]	much smaller response	little impact					Response to second stimulation with 2 nM epinephrine after sustained pre-treatment ([2]; A431 cells pre-treated with 2 nM epinephrine under sustained stimulation, data not shown): completely desensitized; Long-acting or short-acting agonism at the β2AR ([2]; concluded from pulse stimulation through buffer swapping, quiescent A431 cells): short-acting agonist; Effect of pulse pre-treatment on the 2 nM epinephrine-induced DMR signal ([2]; quiescent A431 cells, pulse about 150 sec, 0.5 nM salmeterol, 1 nM CGP12177, 0.1 nM formeterol, FIG. 7a): did not cause the de-sensitization; DMR signal under sustained stimulation at slow flow rate ([1]; 2 nM epinephrine flowed throughout the assay, 1 microliter/min): comparable to that obtained using microplate-based sustained response
SFLLR-amide (SFLLR-NH2; UniProt P25116 42-46, looked up, fragment)			10 µM	largely reversible	still able to respond to the second stimulation with thrombin with slightly smaller amplitude	~400	Plateau level of DMR signal above the baseline after switching back to HBSS ([3]; A549 cells, 10 μM agonist replaced with HBSS 30 min after stimulation, FIG. 9a): about 120 picometers
thrombin			5 unit/ml	largely irreversible	only gave rise to a little response	~400	DMR signal after switching back to HBSS ([3]; A549 cells, 5 unit/ml agonist replaced with HBSS 30 min after stimulation, FIG. 9b): still maintained elevated signal
C[C@@H]1C[C@@H]([C@H](O)CC2CC(=O)NC(=O)C2)C(=O)[C@@H](C)C1 [cycloheximide]							Effect on the second thrombin response of thrombin-treated A549 cells ([3]; 10 μM cycloheximide in every solution, data not shown): largely eliminated
